Experimental data as given in ChEMBL document CHEMBL3352354, “Novel FTY720-Based Compounds Stimulate Neurotrophin Expression and Phosphatase Activity in Dopaminergic Cells” (ACS Med Chem Lett, 2014).
Active and inactive are the calls of the source. The rule behind the calls is not given here.

Assays:
MN9D [1] = test: Neuroprotective activity in mouse MN9D cells assessed as blocking of TNF-alpha associated toxicity at 0.16 uM after 72 hrs by Trypan blue staining; assay type: functional, cell-based
[2] = Neuroprotective activity in mouse MN9D cells assessed as cell division at 0.04 to 0.16 uM after 72 hrs by DAPI staining (reference value: 100 +/- 4.15%); assay type: functional
[3] = Cytotoxicity against mouse MN9D cells assessed as metabolic activity at > 1.5 uM after 72 hrs by MTS assay; assay type: ADME, cell-based
Homo sapiens [4] = species on record: Homo sapiens; test: Induction of recombinant PP2A catalytic subunit (unknown origin) activity assessed as phosphate level at 5 uM relative to control
[5] = Neuroprotective activity in mouse MN9D cells assessed as stimulation of BDNF expression at 0.16 uM after 24 hrs; assay type: functional, cell-based
MN9D [6] = test: Induction of PP2A catalytic subunit activity in mouse MN9D cells assessed as phosphate level at 5 uM; assay type: cell-based
Homo sapiens [7] = species on record: Homo sapiens; test: Induction of recombinant PP2A catalytic subunit (unknown origin) activity assessed as phosphate level using threonine-phosphopeptide at 5 uM
PC-12 = test: Induction of PP2A catalytic subunit activity in rat PC12 cells assessed as phosphate level at 5 uM measured 30 to 120 mins; assay type: cell-based

Structure (SMILES)	fold change (FC) (Homo sapiens [4])	Activity (Homo sapiens [7])	inhibition (MN9D [1])	Activity [2] [%]	Activity [3]	Activity [5]	Activity (MN9D [6])	Activity (PC-12)
CCCCCCCCCCCCC/C=C/[C@H](O)[C@@H](CO)NC(=O)CCCCCCCCC		inactive						
CCCCCCCCCCCCC/C=C/[C@H](O)[C@@H](CO)NC(C)=O	8	Active						
CCCCCCCCCCCCC/C=C/[C@H](O)[C@@H](CO)NC(=O)CCCCC		Active						

Second part, led by results:

fold change (FC) (Homo sapiens [4])	Activity (Homo sapiens [7])	Structure (SMILES)	inhibition (MN9D [1])	Activity [2] [%]	Activity [3]	Activity [5]	Activity (MN9D [6])	Activity (PC-12)
8		CCCCCCCCc1ccc(CCC(CO)(CO)NC(C)=O)cc1	Active	91.44	Toxic	Active	Active	
4	Active	CCCCCCCCc1ccc(CCC(N)(CO)CO)cc1 [FINGOLIMOD]	Active	98	Toxic	Active	Active	Active
4		CCCCCCCCc1ccc(CCC(CO)(CO)NC(=O)CC[P+](c2ccccc2)(c2ccccc2)c2ccccc2)cc1.[Br-]	Active	101.37	Toxic	Active	Active	
